Assay results taken from the supplement of paper PMC4314810.
± gives the standard deviation of the averaged measurements.

test system: MCF7; experiment: HRG-induced Akt activation (dPAkt = log2 pAkt/Akt HRG-stimulated minus log2 pAkt/Akt basal) (log2 ratio difference); higher = stronger HRG-induced Akt(T308) phosphorylation; conditions: miRNA mimic concentration 10 nM; time after transfection 72 h; heregulin 10 ng/ml; stimulation time 1 h
Procedure, shortened: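 Akt activation induced by heregulin was calculated as the difference between stimulated and unstimulated log ratios of phospho-Akt to total Akt, then averaged across replicates. The ratio was taken as log2(pAkt/Akt) from In-Cell Western readings of phospho-Akt(T308) and total Akt on an Odyssey, corrected for column-wise fixation decay. Before reading, MCF7 cells ([…], 96-well plates) transfected with 879 miRNA mimics at 10 nM final via Lipofectamine RNAiMax were, after 72 h, given 10 ng/ml heregulin-beta1 for 1 h or no stimulus, then fixed with 4% PFA. Two biological replicates were run.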

In order of rising “HRG-induced Akt activation (log2)” value:
1. UGGCUCAGUUCAGCAGGAACAG  0.611 ± 0.18
2. AAAGUGCUGCGACAUUUGAGCGU  0.644 ± 0.26
3. UGUAAACAUCCCCGACUGGAAG  0.646 ± 0.057
4. UAACACUGUCUGGUAAAGAUGG  0.763 ± 0.24
5. AAGUGCUUCCUUUUAGAGGGUU  0.817 ± 0.012
6. CCUCUGGGCCCUUCCUCCAG  0.844 ± 0.012
7. CUGGGAGAGGGUUGUUUACUCC  0.876 ± 0.34
8. ACUGUUGCUAAUAUGCAACUCU  0.931 ± 0.72
9. UUGCAGCUGCCUGGGAGUGACUUC  0.96 ± 0.045
10. UGUAACAGCAACUCCAUGUGGA  0.984 ± 0.7
11. AACCCGUAGAUCCGAUCUUGUG  0.985 ± 0.36
12. UUUUGCAAUAUGUUCCUGAAUA  1.01 ± 0.24
13. UCUACAAAGGAAAGCGCUUUCU  1.02 ± 0.55
14. AGGGAUCGCGGGCGGGUGGCGGCCU  1.03 ± 0.13
15. CCUAGUAGGUGUCCAGUAAGUGU  1.04 ± 0.63
16. CUGGGAGAAGGCUGUUUACUCU  1.04 ± 0.2
17. UGAAACAUACACGGGAAACCUC  1.0374 ± 0.0008
18. GAUGAUGCUGCUGAUGCUG  1.07 ± 0.52
19. UCUGCAGGGUUUGCUUUGAG  1.07 ± 0.059
20. GAAGUGCUUCGAUUUUGGGGUGU  1.12 ± 0.22
21. ACUUGUAUGCUAGCUCAGGUAG  1.13 ± 0.012
22. UCCCCCAGGUGUGAUUCUGAUUU  1.14 ± 0.29
23. CAAGAACCUCAGUUGCUUUUGU  1.15 ± 0.34
24. UCUGCUCAUACCCCAUGGUUUCU  1.15 ± 0.24
25. UAAUACUGUCUGGUAAAACCGU  1.15 ± 0.17
26. AACAUAGAGGAAAUUCCACGU  1.17 ± 0.5
27. CUGACCUAUGAAUUGACAGCC  1.18 ± 0.15
28. CAAGCUCGCUUCUAUGGGUCUG  1.18 ± 0.12
29. GUGUGCGGAAAUGCUUCUGCUA  1.18 ± 0.2
30. AUUCCUAGAAAUUGUUCAUA  1.18 ± 0.4
31. UUCAAGUAAUCCAGGAUAGGCU  1.19 ± 0.24
32. ACUCCAUUUGUUUUGAUGAUGGA  1.19 ± 0.29
33. UGGUUGACCAUAGAACAUGCGC  1.2 ± 0.092
34. GGGGUUCCUGGGGAUGGGAUUU  1.21 ± 0.3
35. CUGCAAAGGGAAGCCCUUUC  1.21 ± 0.33
36. AGGCGGGGCGCCGCGGGACCGC  1.22 ± 0.12
37. UGGGAACGGGUUCCGGCAGACGCUG  1.22 ± 0.16
38. UCAGAACAAAUGCCGGUUCCCAGA  1.23 ± 0.54
39. CAAAGUGCUUACAGUGCAGGUAG  1.23 ± 0.17
40. ACUGCCCCAGGUGCUGCUGG  1.25 ± 0.16
41. AAAACCGUCUAGUUACAGUUGU  1.26 ± 0.26
42. CAAAACGUGAGGCGCUGCUAU  1.27 ± 0.087
43. GGUGCAGUGCUGCAUCUCUGGU  1.28 ± 0.0016
44. CCCAGUGUUCAGACUACCUGUUC  1.28 ± 0.6
45. UGUCAGUUUGUCAAAUACCCCA  1.28 ± 0.73
46. UGGUGGUUUACAAAGUAAUUCA  1.29 ± 0.11
47. UUGCAUAUGUAGGAUGUCCCAU  1.32 ± 0.079
48. AACAUCACAGCAAGUCUGUGCU  1.32 ± 0.38
49. CAACACCAGUCGAUGGGCUGU  1.34 ± 0.34
50. AGCCUGGAAGCUGGAGCCUGCAGU  1.35 ± 0.14
51. UCCCUGAGACCCUAACUUGUGA  1.35 ± 0.79
52. UCAGGCUCAGUCCCCUCCCGAU  1.36 ± 0.046
53. AGUUUUGCAUAGUUGCACUACA  1.37 ± 0.032
54. UCCAUUACACUACCCUGCCUCU  1.37 ± 0.17
55. UUAGGCCGCAGAUCUGGGUGA  1.39 ± 0.89
56. UGCAGGACCAAGAUGAGCCCU  1.41 ± 0.17
57. GAACGCGCUUCCCUAUAGAGGGU  1.42 ± 0.13
58. AGGUUGACAUACGUUUCCC  1.43 ± 0.13
59. UGGGUUUACGUUGGGAGAACU  1.44 ± 0.096
60. AAAAGCUGGGUUGAGAGGGCGA  1.44 ± 0.13
61. AAAGUAGCUGUACCAUUUGC  1.44 ± 0.56
62. UUACAGUUGUUCAACCAGUUACU  1.44 ± 0.019
63. CCAAUAUUACUGUGCUGCUUUA  1.45 ± 0.28
64. CUUGGCACCUAGCAAGCACUCA  1.45 ± 0.58
65. AGCAGCAUUGUACAGGGCUAUGA  1.45 ± 0.015
66. UAAAUUUCACCUUUCUGAGAAGG  1.46 ± 0.22
67. UCGUUUGCCUUUUUCUGCUU  1.46 ± 0.3
68. ACUGUAGUAUGGGCACUUCCAG  1.46 ± 0.29
69. ACUGGACUUGGAGUCAGAAGG  1.47 ± 0.21
70. CUGCCAAUUCCAUAGGUCACAG  1.47 ± 0.11
71. AGAGGCUGGCCGUGAUGAAUUC  1.48 ± 0.024
72. UGCAACGAACCUGAGCCACUGA  1.49 ± 0.14
73. UAGUAGACCGUAUAGCGUACG  1.5 ± 0.21
74. UACGUAGAUAUAUAUGUAUUUU  1.5 ± 0.16
75. ACUUGGGCACUGAAACAAUGUCC  1.5 ± 0.025
76. UAAGGCACCCUUCUGAGUAGA  1.51 ± 0.1
77. AGGGUAAGCUGAACCUCUGAU  1.51 ± 0.17
78. CUCUAGAGGGAAGCGCUUUCUG  1.51 ± 0.15
79. AAAAGCUGGGUUGAGAGGA  1.507 ± 0.011
80. ACUCAAAAUGGGGGCGCUUUCC  1.51 ± 0.055
81. AUGGAGAUAGAUAUAGAAAU  1.51 ± 0.11
82. CAACGGAAUCCCAAAAGCAGCUG  1.51 ± 0.045
83. CCUCUUCCCCUUGUCUCUCCAG  1.52 ± 0.031
84. GGCGGAGGGAAGUAGGUCCGUUGGU  1.52 ± 0.058
85. AGACUUCCCAUUUGAAGGUGGC  1.52 ± 0.18
86. AAAAGUAAUUGCGGUUUUUGCC  1.53 ± 0.17
87. GUGUUGAAACAAUCUCUACUG  1.53 ± 0.25
88. CUGACUGUUGCCGUCCUCCAG  1.53 ± 0.13
89. CAUAAAGUAGAAAGCACUACU  1.54 ± 0.062
90. GGUGGCCCGGCCGUGCCUGAGG  1.55 ± 0.26
91. CCCAGAUAAUGGCACUCUCAA  1.55 ± 0.12
92. AGAUCAGAAGGUGAUUGUGGCU  1.56 ± 0.3
93. AGGGGCUGGCUUUCCUCUGGUC  1.57 ± 0.17
94. CCCAGUGUUUAGACUAUCUGUUC  1.58 ± 0.18
95. CGCAGGGGCCGGGUGCUCACCG  1.59 ± 0.09
96. AAGCCCUUACCCCAAAAAGCAU  1.6 ± 0.26
97. UGAGGUAGUAAGUUGUAUUGUU  1.6 ± 0.43
98. ACUGGGGGCUUUCGGGCUCUGCGU  1.6 ± 0.11
99. UUUGGUCCCCUUCAACCAGCUA  1.61 ± 0.066
100. AAAAGCUGGGUUGAGAGGGCAA  1.61 ± 0.092
101. UCAAAUGCUCAGACUCCUGUGGU  1.63 ± 0.19
102. UCUACAGUGCACGUGUCUCCAG  1.65 ± 0.062
103. CAGUUAUCACAGUGCUGAUGCU  1.66 ± 0.42
104. ACUGCAUUAUGAGCACUUAAAG  1.66 ± 0.41
105. GGUCCAGAGGGGAGAUAGGUUC  1.67 ± 0.24
106. AGCUUCUUUACAGUGCUGCCUUG  1.68 ± 0.2
107. UCACCAGCCCUGUGUUCCCUAG  1.69 ± 0.061
108. CGUCUUACCCAGCAGUGUUUGG  1.73 ± 0.13
109. GGGGAGCUGUGGAAGCAGUA  1.73 ± 0.21
110. UGAUAUGUUUGAUAUUGGGUU  1.75 ± 0.041
111. GAGCCAGUUGGACAGGAGC  1.77 ± 0.38
112. AACAUUCAUUGCUGUCGGUGGGU  1.77 ± 0.45
113. AACAAUAUCCUGGUGCUGAGUG  1.79 ± 0.41
114. UCAUAUUGCUUCUUUCU  1.79 ± 0.17
115. AUGGGUGAAUUUGUAGAAGGAU  1.81 ± 0.12
116. UGAUUGUCCAAACGCAAUUCU  1.82 ± 0.3
117. UGGGCGUAUCUGUAUGCUA  1.83 ± 0.1
118. AAACAUUCGCGGUGCACUUCUU  1.84 ± 0.035
119. CUAUACAGUCUACUGUCUUUCC  1.85 ± 0.18
120. CUCUAGAGGGAAGCACUUUCUC  1.85 ± 0.4
121. CUUAUGCAAGAUUCCCUUCUAC  1.85 ± 0.23
122. UGGGUCUUUGCGGGCGAGAUGA  1.89 ± 0.21
123. CCAGACAGAAUUCUAUGCACUUUC  1.93 ± 0.7
124. AUCCUUGCUAUCUGGGUGCUA  1.94 ± 0.15
125. UAUACCUCAGUUUUAUCAGGUG  1.94 ± 0.15
126. GUGAAAUGUUUAGGACCACUAG  1.97 ± 0.049
127. ACUGGACUUAGGGUCAGAAGGC  2.01 ± 0.38
128. UGUGAGGUUGGCAUUGUUGUCU  2.02 ± 0.55
129. AGAUCGACCGUGUUAUAUUCGC  2.02 ± 0.14
130. AUAUAUGAUGACUUAGCUUUU  2.03 ± 0.027
131. UUUGAGGCUACAGUGAGAUGUG  2.06 ± 0.034
132. UGAGCCCCUGUGCCGCCCCCAG  2.137 ± 0.01
133. ACGGAUGUUUGAGCAUGUGCUA  2.15 ± 0.13
134. UGGAAGACUAGUGAUUUUGUUGU  2.15 ± 0.38
135. CUGUACAGCCUCCUAGCUUUCC  2.26 ± 0.15
136. CGUGUAUUUGACAAGCUGAGUU  2.29 ± 0.19
137. UGCUGGAUCAGUGGUUCGAGUC  2.32 ± 0.36
138. AAGUGUGCAGGGCACUGGU  2.33 ± 0.23
139. UGUGUCACUCGAUGACCACUGU  2.42 ± 0.089
140. CGCAUCCCCUAGGGCAUUGGUGU  2.62 ± 0.28
